Reference: patent US20160000750A1, “COMBINATION OF EGCG OR METHYLATED EGCG AND A PDE INHIBITOR” (KYUSHU UNIVERSITY, NATIONAL UNIVERSITY CORPORATION, priority 2010, published 2016)

Legend:
[1] = system: human multiple myeloma cell line, U266; test: Trypan blue cell viability and viable cell count, U266; type: cell-based; details: vardenafil 5 μM, EGCG 5 μM added after 3 hours, 96 hours
Method: A human multiple myeloma cell line, U266, was subcultured in an RPMI 1640 medium (NISSUI PHARMACEUTICAL Co. LTD., Tokyo) supplemented with 10% fetal calf serum (FCS) (BIOLOGICAL INDUSTRIES) at 37° C. under vapor-saturated 5% CO2 conditions. The cells were cultured in the logarithmic growth phase. A human acute myeloid leukemia cell line, HL60, was subcultured in an RPMI 1640 medium supplemented with 10% fetal calf serum (FCS) at 37° C. under vapor-saturated 5% CO2 conditions. The cells were cultured in the logarithmic growth phase. […]
The plate was returned to the incubator immediately after the addition of EGCG, followed by culturing for 96 hours. […] After 10 minutes, the number of the cells was counted with a hemocytometer (Becton, Dickinson and Company). Unstained cells were deemed as viable cells, and the cell viability was determined as a ratio of the number of unstained cells in trypan blue staining to the total number of cells. […]

[2] = system: human multiple myeloma cell line, RPMI8226; test: Trypan blue cell viability and viable cell count, RPMI8226; type: cell-based; details: vardenafil 5 μM, EGCG 5 μM, 96 hours
Method: Enhancement of the activity of EGCG on multiple myeloma cells by vardenafil was investigated. A human multiple myeloma cell line, RPMI8226, was seeded in a 24-well plate at 5×10^4 cells/mL, and vardenafil was added thereto at a final concentration of 5 μM. After 3 hours, EGCG was added thereto at a final concentration of 5 μM. After 96 hours, cell viability (A) and the number (B) of viable cells were measured by trypan blue staining. The value of a control group of cells not treated with EGCG and vardenafil was defined as 100%. The results are shown in FIG. 8 (n=3, Tukey's test, *: P<0.05, ***: P<0.001).

[3] = system: Toll-like receptor (TLR) 2; test: TLR2 expression in RAW 264.7 by Western blotting; type: cell-based, mouse; details: vardenafil 5 μM, EGCG 10 μM added after 3 hours, 24 hours, untreated = 100
Method: (§1) A mouse macrophage cell line, RAW 264.7, was seeded in a 5-mL dish at 1×10^5 cells/mL and was pre-cultured in a DMEM medium supplemented with 1% FCS for 24 hours. Subsequently, vardenafil was added thereto at a concentration of 5 μM. After 3 hours, EGCG was added thereto at a concentration of 0 μM or 10 μM. After 24 hours, the cells were collected, and the expressions of Toll-like receptor (TLR) 2 and TLR 4 were measured by Western blotting.

TLR 4 = test: TLR4 expression in RAW 264.7 by Western blotting; type: cell-based, mouse; details: vardenafil 5 μM, EGCG 10 μM added after 3 hours, 24 hours, untreated = 100
Method: as §1

Substance: (−)-epigallocatechin-3-O-gallate [EGCG]
- cell viability (cell-killing activity) [1]: any cytotoxicity was not observed
- cell viability (cell-killing activity) [2]: any cytotoxicity was not observed
- TLR2 expression level(%) [3]: 90%
- TLR4 expression level(%) (TLR 4): 57%
